For assay [1], the system named is HPAF-II. Kind of assay: Downregulation of phosphorylated AKT expression in human HPAF-II cells at 20 uM incubated for 48 hrs by Western blot analysis. Format: functional, cell-based. On the technique in general: A western blot detects proteins with antibodies after separation by electrophoresis.
The target of assay [2] is T1, Nuclear receptor ROR-gamma (Homo sapiens, UniProt P51449).
T1 sequence (P51449 whole entry): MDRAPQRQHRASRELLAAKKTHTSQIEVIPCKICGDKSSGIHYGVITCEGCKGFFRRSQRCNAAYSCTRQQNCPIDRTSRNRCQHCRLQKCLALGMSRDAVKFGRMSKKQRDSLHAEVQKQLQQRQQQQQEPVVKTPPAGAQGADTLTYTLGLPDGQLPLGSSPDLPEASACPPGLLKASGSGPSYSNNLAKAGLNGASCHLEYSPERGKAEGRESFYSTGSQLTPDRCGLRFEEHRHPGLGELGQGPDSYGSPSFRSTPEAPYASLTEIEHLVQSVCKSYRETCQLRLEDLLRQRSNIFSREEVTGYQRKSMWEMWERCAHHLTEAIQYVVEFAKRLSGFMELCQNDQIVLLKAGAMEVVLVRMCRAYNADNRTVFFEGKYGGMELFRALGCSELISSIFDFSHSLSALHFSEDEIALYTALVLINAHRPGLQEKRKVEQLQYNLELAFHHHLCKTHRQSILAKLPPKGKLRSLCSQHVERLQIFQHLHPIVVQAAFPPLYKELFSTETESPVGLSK
Kind of assay: Binding affinity to CM5 chip-immobilized recombinant ROR-gamma LBD (unknown origin) assessed as dissociation constant by SPR analysis. (In general: In SPR one partner is held on a chip, and binding of the other changes the refractive index at the surface.)

Assay [3] addresses T1, Nuclear receptor ROR-gamma. Kind of assay: Antagonist activity at ROR-gamma LBD (unknown origin) using biotinylated SRC1-2 as substrate preincubated for 60 mins followed by substrate addition measured after 30 mins by HTRF assay. In general terms: TR-FRET usually uses a lanthanide donor and a delayed reading to cut background.
Assay [4] has as its system HPAF-II. Put plainly: Downregulation of phosphorylated MEK expression in human HPAF-II cells at 20 uM incubated for 48 hrs by Western blot analysis. Format: functional, cell-based.
For assay [5], the system named is HPAF-II. Put plainly: Downregulation of lipid metabolism-related gene expression in human HPAF-II cells at 20 uM incubated for 24 hrs by GO analysis. Type of assay: functional, cell-based.
For assay [6], the system named is HPAF-II. Put plainly: Downregulation of drug metabolism-related gene expression in human HPAF-II cells at 20 uM incubated for 24 hrs by KEGG analysis. Format: functional, cell-based.
Assay [7] relates to HPAF-II. Kind of assay: Downregulation of phosphorylated ERK expression in human HPAF-II cells at 20 uM incubated for 48 hrs by Western blot analysis. Type of assay: functional, cell-based.
Assay [8] has as its system HPAF-II. Kind of assay: Effect on mTORC1 signalling pathway in human HPAF-II cells at 20 uM incubated for 24 hrs by KEGG analysis. Format: functional, cell-based.
In assay [9] the test system is HPAF-II. Kind of assay: Inhibition of RAS signalling pathway in human HPAF-II cells at 20 uM incubated for 24 hrs by KEGG analysis. Format: functional, cell-based.
The target of assay [10] is T2, Nuclear receptor ROR-gamma (Homo sapiens) (UniProt P51449).
T2 sequence (whole entry): T1 sequence (P51449 whole entry)
Kind of assay: Binding affinity to ROR-gamma LBD (265 to 507 residues)(unknown origin) assessed as increase in thermal stability by measuring change in melting temperature at 100 uM incubated for 2 hrs followed by heating at 20 to 90 degreeC by NanoDSF assay (reference value: 46.0 degreeC). The conditions noted are these: filed as antagonist.

Assay [11] deals with HPAF-II. Kind of assay: Downregulation of cancer-related gene expression in human HPAF-II cells at 20 uM incubated for 24 hrs by GO analysis. Format: functional, cell-based.
The subject of assay [12] is HPAF-II. Kind of assay: Inhibition of MAPK signalling pathway in human HPAF-II cells at 20 uM incubated for 24 hrs by KEGG analysis. Type of assay: functional, cell-based.
Assay [13] relates to HPAF-II. Put plainly: Downregulation of retinol metabolism-related gene expression in human HPAF-II cells at 20 uM incubated for 24 hrs by KEGG analysis. Format: functional, cell-based.
The test system of assay [14] is HPAF-II. Kind of assay: Downregulation of cancer-related gene expression in human HPAF-II cells at 20 uM incubated for 24 hrs by KEGG analysis. Format: functional, cell-based.
The target of assay [15] is T1, Nuclear receptor ROR-gamma. Put plainly: Binding affinity to ROR-gamma LBD (unknown origin) assessed as dissociation constant by ITC analysis.
The subject of assay [16] is HPAF-II. Kind of assay: Downregulation of retinol metabolism-related gene expression in human HPAF-II cells at 20 uM incubated for 24 hrs by GO analysis. Type of assay: functional, cell-based.
The target in assay [17] is T2, Nuclear receptor ROR-gamma (Homo sapiens). Kind of assay: Binding affinity to ROR-gamma LBD (unknown origin) assessed as protein stabilization by measuring reduction in hydrolysis rate incubated for 10 mins by SDS-PAGE analysis. To be noted: filed as antagonist, dose <= 100.0 µM.
The test system of assay [18] is HPAF-II. Kind of assay: Downregulation of chemical carcinogenesis-related gene expression in human HPAF-II cells at 20 uM incubated for 24 hrs by KEGG analysis. Format: functional, cell-based.
Assay [19] deals with T2, Nuclear receptor ROR-gamma (Homo sapiens). Put plainly: Binding affinity to ROR-gamma LBD (265 to 507 residues)(unknown origin) assessed as increase in thermal stability by measuring melting temperature at 100 uM incubated for 2 hrs followed by heating at 20 to 90 degreeC by NanoDSF assay (reference value: 46.0 degreeC). To be noted: filed as antagonist.
Assay [20] concerns HPAF-II. Kind of assay: Antitumor activity against human HPAF-II cells measured after 72 hrs. Format: functional, cell-based.
The test system of assay [21] is HPAF-II. Kind of assay: Induction of apoptosis in human HPAF-II cells assessed as late apoptotic cells at 1 uM incubated for 48 hrs by Annexin V-FITC/PI staining based flow cytometry (reference value: 1.28 %). Type of assay: functional.
Assay [22] deals with NCI-H23. Put plainly: Induction of apoptosis in human NCI-H23 cells assessed as late apoptotic cells at 10 uM incubated for 48 hrs by Annexin V-FITC/PI staining based flow cytometry (reference value: 2.89 %). Type of assay: functional.
Assay [23] concerns NCI-H23. Kind of assay: Induction of apoptosis in human NCI-H23 cells assessed as necrotic cells at 10 uM incubated for 48 hrs by Annexin V-FITC/PI staining based flow cytometry (reference value: 0.78 %). Format: functional.
Assay [24] concerns HPAF-II. Put plainly: Induction of apoptosis in human HPAF-II cells assessed as viable cells at 1 uM incubated for 48 hrs by Annexin V-FITC/PI staining based flow cytometry (reference value: 89.73 %). Format: functional. To be noted: read-out: Activity.
Assay [25] deals with HPAF-II. Kind of assay: Induction of apoptosis in human HPAF-II cells assessed as early apoptotic cells at 1 uM incubated for 48 hrs by Annexin V-FITC/PI staining based flow cytometry (reference value: 0.90 %). Format: functional.
Assay [26] deals with NCI-H23. Put plainly: Induction of apoptosis in human NCI-H23 cells assessed as early apoptotic cells at 10 uM incubated for 48 hrs by Annexin V-FITC/PI staining based flow cytometry (reference value: 4.17 %). Type of assay: functional.
For assay [27], the system named is HPAF-II. Put plainly: Induction of apoptosis in human HPAF-II cells assessed as necrotic cells at 1 uM incubated for 48 hrs by Annexin V-FITC/PI staining based flow cytometry (reference value: 8.09 %). Type of assay: functional.
Assay [28] has as its system NCI-H23. Kind of assay: Induction of apoptosis in human NCI-H23 cells assessed as viable cells at 10 uM incubated for 48 hrs by Annexin V-FITC/PI staining based flow cytometry (reference value: 92.16 %). Format: functional. The conditions noted are these: read-out: Activity.

Structures are written as SMILES. Calls of active or inactive are those of the source. The calls are words filed in the database; no cut-off is given here.

A word on the Kd: it is the concentration at which binding is half-saturated. As usually defined, the IC50 is the concentration at which inhibition is half-maximal. Higher therefore signals a need for much substance. Usually ΔTm stands for the shift of the melting midpoint relative to a reference. What is called Tm is the temperature at which the thermal transition is half complete. As to `C=C(C)[C@@H]1CC[C@]2(C(=O)O)CC[C@]3(C)[C@H](CC[C@@H]4[C@@]5(C)CC[C@H](O)C(C)(C)[C@@H]5CC[C@]43C)[C@@H]12` [BETULINIC ACID], the result in assay [1], in [4], in assay [5], in assay [6], in [7] and in [8] was Active. Also, the outcome in [11], in [13], in [14], in assay [16] and in [18] was Active. Besides, the Kd in [2] turned out to be 2.7 µM; in [15] it was 3.39 µM. Also, the IC50 turned out to be 2.2 µM in assay [3] and 12.5 µM in assay [20]. The inhibition entry in [9] and in [12] was “Active” throughout. In addition, the ΔTm in [10] came to 14.1 °C. Besides, the Activity result in assay [17] was “Dose-Dependent Effect”. Besides, the Tm in assay [19] worked out at 60.2 °C.

Consider `O=S(=O)(c1ccccc1)N(CC(F)(F)F)c1ccc(C(O)(C(F)(F)F)C(F)(F)F)cc1` [T091317], for which the Activity is given as 7.38% in [21]; 3.82% in [22]; 3.3% in assay [23]; 8.56% in [25]; 2.68% in assay [26]; 6.3% in [27]. For the same compound, the viability at 1 µM in assay [24] is 79.8%. Further, in assay [28], the viability at 10 µM turned out to be 90.2%.

The values are drawn from ChEMBL document CHEMBL5620362 (Eur J Med Chem, 2023).
